The test system of assay [1] is NET. Details: method as in Madras et al. (2006) 53. The conditions noted are these: ref Madras et al. (2006) 53; read-out: IC50, inhibition of noradrenaline uptake by the NET; cited from earlier work.
In assay [2] the target is WT human DAT (Homo sapiens, UniProt Q01959). Briefly: [3H]CFT binding inhibition, intact HEK293 cells expressing WT hDAT. To be noted: inhibition by cold β-CFT.

Each structure is given as a SMILES string. pIC50: −log10 of the molar value.

WT human DAT, sequence (Q01959 whole entry): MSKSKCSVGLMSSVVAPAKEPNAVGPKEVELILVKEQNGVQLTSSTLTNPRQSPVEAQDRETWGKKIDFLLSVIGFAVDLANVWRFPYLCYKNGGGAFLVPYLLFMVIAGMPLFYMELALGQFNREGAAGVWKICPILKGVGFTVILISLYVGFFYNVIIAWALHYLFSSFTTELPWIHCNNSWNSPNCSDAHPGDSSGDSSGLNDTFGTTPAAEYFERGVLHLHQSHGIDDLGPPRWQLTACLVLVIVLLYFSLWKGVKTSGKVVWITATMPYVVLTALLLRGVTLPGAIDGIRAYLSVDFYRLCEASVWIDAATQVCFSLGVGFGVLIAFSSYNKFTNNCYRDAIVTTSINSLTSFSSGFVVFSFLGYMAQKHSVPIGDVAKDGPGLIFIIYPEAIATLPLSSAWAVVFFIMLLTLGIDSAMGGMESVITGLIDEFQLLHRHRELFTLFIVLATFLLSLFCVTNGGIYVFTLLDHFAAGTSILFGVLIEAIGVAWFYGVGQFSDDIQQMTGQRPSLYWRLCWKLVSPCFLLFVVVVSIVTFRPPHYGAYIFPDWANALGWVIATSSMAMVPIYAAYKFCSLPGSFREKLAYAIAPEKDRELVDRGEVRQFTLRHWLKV

Take `NC(=O)C[S+]([O-])C(c1ccccc1)c1ccccc1` (racemic) [(±)-modafinil, 2-(benzhydrylsulfinyl)acetamide]: the pIC50 in assay [1] is […]. On to `COC(=O)C1C(c2ccc(F)cc2)CC2CCC1N2C` (stereo not drawn) [β-CFT], for which the “Bmax of [3H]CFT binding, sodium-free + Zn2+” value in assay [2] (sodium-free conditions with 10 µM Zn2+) is recorded as 502±78 fmole/well. Also, the “Bmax of [3H]CFT binding, sodium-free” value in assay [2] (sodium-free conditions, no Zn2+) is given as 125±15.8 fmole/well.

As a reminder, the pIC50 is the negative decadic logarithm of the IC50, by convention in mol/L.

These data come from publication PMC3197159, “The Atypical Stimulant and Nootropic Modafinil Interacts with the Dopamine Transporter in a Different Manner than Classical Cocaine-Like Inhibitors” (PLoS ONE, 2011).
